Values quoted from earlier work as cited in US20210196801A1, “Starting Dose of PTH Conjugates” (Ascendis Pharma Bone Diseases A/S, priority 2018, published 2021).
Where two headings read alike, the source gives them in different places.

How the values were obtained:
[1] = not given; remark: listed apart in the source

half-life (after IV administration)	half-life (after subcutaneous administration, due to prolonged absorption) [h]	Compound	half-life ([1]; IV)	half-life ([1]; after subcutaneous administration)
about 5 minutes	~1	CC[C@H](C)[C@H](NC(=O)[C@H](CCC(=O)O)NC(=O)[C@H](CO)NC(=O)[C@@H](NC(=O)[C@@H](N)CO)C(C)C)C(=O)N[C@@H](CCC(N)=O)C(=O)N[C@@H](CC(C)C)C(=O)N[C@@H](CCSC)C(=O)N[C@@H](Cc1cnc[nH]1)C(=O)N[C@@H](CC(N)=O)C(=O)N[C@@H](CC(C)C)C(=O)NCC(=O)N[C@@H](CCCCN)C(=O)N[C@@H](Cc1cnc[nH]1)C(=O)N[C@@H](CC(C)C)C(=O)N[C@@H](CC(N)=O)C(=O)N[C@@H](CO)C(=O)N[C@@H](CCSC)C(=O)N[C@@H](CCC(=O)O)C(=O)N[C@@H](CCCN=C(N)N)C(=O)N[C@H](C(=O)N[C@@H](CCC(=O)O)C(=O)N[C@@H](Cc1c[nH]c2ccccc12)C(=O)N[C@@H](CC(C)C)C(=O)N[C@@H](CCCN=C(N)N)C(=O)N[C@@H](CCCCN)C(=O)N[C@@H](CCCCN)C(=O)N[C@@H](CC(C)C)C(=O)N[C@@H](CCC(N)=O)C(=O)N[C@@H](CC(=O)O)C(=O)N[C@H](C(=O)N[C@@H](Cc1cnc[nH]1)C(=O)N[C@@H](CC(N)=O)C(=O)N[C@@H](Cc1ccccc1)C(=O)O)C(C)C)C(C)C [Teriparatide]	–	–
–	–	Natpara: PTH(1-84), approved for once-daily subcutaneous injection in patients with hypoparathyroidism	about 5 minutes	about 3 hours
